# PubChem BioAssay (NCI)
#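 Cells were grown in 96-well plates and exposed to each compound for 48 hours at five concentrations; endpoints were interpolated linearly between bracketing concentrations, or set to the highest concentration if not reached. The concentration for 50% growth inhibition is given as GI50. TGI: total growth inhibition.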
# Tests used:
# Experiment in all cases: growth of human tumour cells (NCI), 48 h
# [1] = system: OVCAR-3 ovarian
# [2] = system: NCI-H460 lung
# [3] = system: UO-31 renal
# [4] = system: SF-268 CNS
# [5] = system: KM12 colon
# [6] = system: CAKI-1 renal
# [7] = system: MDA-MB-435
# [8] = system: SN12C renal
# [9] = system: SK-MEL-2 melanoma
# [10] = system: ACHN renal
# [11] = system: A549 NSCLC
# [12] = system: A498 renal
# [13] = system: UACC-62 melanoma
# [14] = system: U251 CNS
# [15] = system: OVCAR-4 ovarian
# [16] = system: COLO 205 colon
# [17] = system: MCF7 breast
# [18] = system: SNB-75 CNS
# [19] = system: NCI-H226 lung
# [20] = system: NCI-H23 lung
# [21] = system: HOP-62 NSCLC
# [22] = system: OVCAR-5 ovarian
# [23] = system: SK-MEL-5 melanoma
# [24] = system: MALME-3M melanoma
# [25] = system: SW-620 colon
# [26] = system: HCT-15 colon
# [27] = system: SF-295 CNS
# [28] = system: SNB-19 CNS
# [29] = system: NCI-H522 lung
# [30] = system: NCI/ADR-RES ovarian
# [31] = system: EKVX NSCLC
# [32] = system: UACC-257 melanoma
# [33] = system: DU-145 prostate
# [34] = system: 786-0 renal
# [35] = system: HT29 colon
# [36] = system: PC-3 prostate
# [37] = system: T-47D breast
# [38] = system: MOLT-4 leukemia
# [39] = system: HOP-92 NSCLC
# [40] = system: LOX IMVI melanoma
# [41] = system: HL-60(TB) leukemia
# [42] = system: IGROV1 ovarian
# [43] = system: K-562 leukemia
# [44] = system: HS 578T breast
# [45] = system: SK-OV-3 ovarian
# [46] = system: OVCAR-8 ovarian
# [47] = system: SF-539 CNS
# [48] = system: CCRF-CEM leukemia
# [49] = system: MDA-MB-231 breast
# [50] = system: RPMI-8226 leukemia
# [51] = system: M14 melanoma
# [52] = system: SK-MEL-28 melanoma
# [53] = system: HCC-2998 colon
# [54] = system: TK-10 renal
# [55] = system: BT-549 breast
smiles,measurement,setting,value
CC(=O)OC1Oc2ccccc2-c2oc(=O)c(-c3cc4ccccc4oc3=O)cc21 (stereo not given),GI50,[1],19.1 µM
same,TGI,[1],46.6 µM
same,GI50,[2],27.8 µM
same,TGI,[2],91 µM
same,GI50,[3],18 µM
same,TGI,[3],35.4 µM
same,GI50,[4],19.6 µM
same,TGI,[4],40.9 µM
same,GI50,[5],41.4 µM
same,TGI,[5],> 100 µM
same,GI50,[6],26.9 µM
same,TGI,[6],66.1 µM
same,GI50,[7],22.3 µM
same,TGI,[7],79.6 µM
same,GI50,[8],21.5 µM
same,TGI,[8],53.8 µM
same,GI50,[9],35 µM
same,TGI,[9],> 100 µM
same,GI50,[10],14.1 µM
same,TGI,[10],29.6 µM
same,GI50,[11],15.4 µM
same,TGI,[11],33 µM
same,GI50,[12],18.8 µM
same,TGI,[12],43.9 µM
same,GI50,[13],17.4 µM
same,TGI,[13],35.1 µM
same,GI50,[14],14.7 µM
same,TGI,[14],28.3 µM
same,GI50,[15],23.1 µM
same,TGI,[15],50.9 µM
same,GI50,[16],35.5 µM
same,TGI,[16],> 100 µM
same,GI50,[17],15.3 µM
same,TGI,[17],34.1 µM
same,GI50,[18],17.3 µM
same,TGI,[18],34.5 µM
same,GI50,[19],17.1 µM
same,TGI,[19],35.4 µM
same,GI50,[20],24 µM
same,TGI,[20],52.4 µM
same,GI50,[21],18.6 µM
same,TGI,[21],34.4 µM
same,GI50,[22],35 µM
same,TGI,[22],> 100 µM
same,GI50,[23],24.8 µM
same,TGI,[23],57.8 µM
same,GI50,[24],13.9 µM
same,TGI,[24],36.5 µM
same,GI50,[25],65 µM
same,TGI,[25],> 100 µM
same,GI50,[26],22.3 µM
same,TGI,[26],> 100 µM
same,GI50,[27],18.6 µM
same,TGI,[27],41.3 µM
same,GI50,[28],17 µM
same,TGI,[28],32.4 µM
same,GI50,[29],18.5 µM
same,TGI,[29],36.3 µM
same,GI50,[30],22.5 µM
same,TGI,[30],51.3 µM
same,GI50,[31],26.4 µM
same,TGI,[31],74.6 µM
same,GI50,[32],14.1 µM
same,TGI,[32],36.6 µM
same,GI50,[33],20.1 µM
same,TGI,[33],52.5 µM
same,GI50,[34],16.6 µM
same,TGI,[34],31.3 µM
same,GI50,[35],33 µM
same,TGI,[35],> 100 µM
same,GI50,[36],29.1 µM
same,TGI,[36],> 100 µM
same,GI50,[37],21.3 µM
same,TGI,[37],51.8 µM
same,GI50,[38],25.4 µM
same,TGI,[38],81.8 µM
same,GI50,[39],19.3 µM
same,TGI,[39],45.6 µM
same,GI50,[40],14.9 µM
same,TGI,[40],29.6 µM
same,GI50,[41],39 µM
same,TGI,[41],> 100 µM
same,GI50,[42],20.5 µM
same,TGI,[42],48.6 µM
same,GI50,[43],27.6 µM
same,TGI,[43],> 100 µM
same,GI50,[44],30 µM
same,TGI,[44],89.2 µM
same,GI50,[45],13.7 µM
same,TGI,[45],30 µM
same,GI50,[46],17.8 µM
same,TGI,[46],36.7 µM
same,GI50,[47],19.8 µM
same,TGI,[47],39.2 µM
same,GI50,[48],23.2 µM
same,TGI,[48],54.2 µM
same,GI50,[49],17.4 µM
same,TGI,[49],35 µM
same,GI50,[50],18.7 µM
same,TGI,[50],41.2 µM
same,GI50,[51],36.6 µM
same,TGI,[51],> 100 µM
same,GI50,[52],32.7 µM
same,TGI,[52],87.3 µM
same,GI50,[53],57.7 µM
same,TGI,[53],> 100 µM
same,GI50,[54],18.3 µM
same,TGI,[54],37.2 µM
same,GI50,[55],18.6 µM
same,TGI,[55],40.1 µM
